Assay results: publication PMC10938783, “A novel pan-PI3K inhibitor KTC1101 synergizes with anti-PD-1 therapy by targeting tumor suppression and immune activation” (Molecular Cancer, 2024)
Several values for one entry are separate records, joined by “and”; a condition that tells them apart may be missing. Equal entries are not always repeated.

Tests used:
[1] = tested on: JFCR39 panel of 39 human tumor cell lines; assay: JFCR39 panel growth inhibition, panel statistics; type: cell-based; conditions: Homo sapiens; JFCR39 panel; read-out: mean GI50 across all 39 cell lines
Procedure: JFCR39 drug discovery system was used to measure the growth inhibitory activities and identify the target of KTC1101. The JFCR39 panel consists of 39 cell lines seeded in 96-well plates. After 48-h treatment with KTC1101, cell growth was measured using the sulforhodamine B assay. […] The deviation of log GI50 for each cell line from the average log GI50 across the JFCR39 panel was plotted as a fingerprint. MG-MID (mean of Log GI50 values) represents the average log GI50 for all 39 cell lines. The most sensitive and least sensitive cell lines were identified by calculating the difference in their log GI50 values (Range) and the difference between the most sensitive cell line and the average GI50 on the JFCR39 panel (Delta). The fingerprint of KTC1101 was compared with the fingerprints of reference compounds in the database. The Pearson correlation coefficient (r) was calculated (n = 39).

[2] = tested on: B16 cells gene expression; assay: RNA-Seq (DEGs, GSEA, heatmaps) of B16 cells; conditions: B16 cells, replicates KTC1-KTC3
[3] = Liver microsome metabolic stability assay; conditions: mouse, microsomes

## COc1c(OCCCN2CCOCC2)ccc2c1N=C(NC(=O)c1cnc(N)nc1)N1CCN=C21 [Copanlisib, reference compound]
[1]
  GI50: 134 nM

## COc1cc(N)cc2c1nc(C(F)F)n2-c1nc(N2CCCOCC2)nc(N2CCOCC2)n1 [KTC]
[2]; KTC 0.04μM
  Adam19 gene expression (RNA-Seq): 11.78 and 12.44 and 13.05
  Axl gene expression (RNA-Seq): 4.83 and 4.54 and 4.92
  Btg1 gene expression (RNA-Seq): 6.87 and 7.6 and 7.15
  Capg gene expression (RNA-Seq): 24.95 and 22.04 and 23.37
  Ccl5 gene expression (RNA-Seq): 9.15 and 9.99 and 10.19
  Ccn1 gene expression (RNA-Seq): 37.5 and 41.45 and 42.8
  Ccnd1 gene expression (RNA-Seq): 70.38 and 71.17 and 69.7
  Cx3cl1 gene expression (RNA-Seq): 1.55 and 2.17 and 1.72
  Cxcl10 gene expression (RNA-Seq): 16.76 and 15.67 and 17.26
  Dusp1 gene expression (RNA-Seq): 4.08 and 4.86 and 3.75
  Dusp4 gene expression (RNA-Seq): 48.69 and 51.07 and 50.43
  Egr1 gene expression (RNA-Seq): 0.45 and 0.83 and 0.94
  Etv4 gene expression (RNA-Seq): 1.8 and 1.31 and 1.55
  Fos gene expression (RNA-Seq): 5.98 and 9.07 and 3.6
  Fosb gene expression (RNA-Seq): 5.83 and 8.56 and 1.19
  Hes1 gene expression (RNA-Seq): 2.93 and 3.6 and 4.11
  Irak2 gene expression (RNA-Seq): 4.46 and 3.71 and 4.84
  Irf6 gene expression (RNA-Seq): 0.75 and 0.73 (2×)
  Irs2 gene expression (RNA-Seq): 4.62 and 4.54 and 4.48
  Jag1 gene expression (RNA-Seq): 3.9 and 3.6 and 3.87
  Junb gene expression (RNA-Seq): 5.41 and 5.91 and 6.31
  Klf2 gene expression (RNA-Seq): 2.37 and 2.53 and 1.84
  Klf9 gene expression (RNA-Seq): 1.42 and 1.56 and 1.52
  Maff gene expression (RNA-Seq): 1.99 and 1.97 and 1.81
  Myc gene expression (RNA-Seq): 51.1 and 50.03 and 54.71
  Nfkb2 gene expression (RNA-Seq): 19.99 and 21.56 and 22.54
  Nfkbia gene expression (RNA-Seq): 16.08 and 16.06 and 15.47
  Nfkbie gene expression (RNA-Seq): 12.93 and 13.17 and 14.09
  Nr4a1 gene expression (RNA-Seq): 27.6 and 28.38 and 30.22
  Nr4a3 gene expression (RNA-Seq): 13.97 and 13.13 and 12.62
  P2rx7 gene expression (RNA-Seq): 9.9 and 10.96 and 10.37
  Pde4b gene expression (RNA-Seq): 7.81 and 8.81 and 8.51
  Pmepa1 gene expression (RNA-Seq): 0.72 and 0.75 and 0.79
  Pnrc1 gene expression (RNA-Seq): 23.22 and 24.79 and 24.57
  Relb gene expression (RNA-Seq): 7.12 and 7.46 and 7.78
  Rgs16 gene expression (RNA-Seq): 6.49 and 5.97 and 6.54
  Rhob gene expression (RNA-Seq): 30.37 and 32.79 and 32.66
  Serpine1 gene expression (RNA-Seq): 0.22 and 0.24 and 0.32
  Sgk1 gene expression (RNA-Seq): 3.46 and 3.48 and 3.41
  Sgms2 gene expression (RNA-Seq): 0.2 and 0.16 and 0.24
  Spred2 gene expression (RNA-Seq): 15.32 and 15.07 and 16.22
  Spry4 gene expression (RNA-Seq): 1.16 and 1.17 and 1.15
  Tiparp gene expression (RNA-Seq): 15.99 and 15.69 and 16.6
  Zc3h12a gene expression (RNA-Seq): 2.43 and 2.61 and 1.93
  Zfp36 gene expression (RNA-Seq): 3.85 and 4.04 and 4.57
[2]; KTC 0.2μM
  Adam19 gene expression (RNA-Seq): 19.27 and 19.65 and 19.87
  Adcy1 gene expression (RNA-Seq): 0.05 (2×) and 0.09
  Adcy6 gene expression (RNA-Seq): 15.71 and 16.34 and 15.68
  Adcy7 gene expression (RNA-Seq): 24.18 and 23.98 and 24.16
  Ahr gene expression (RNA-Seq): 3.75 and 3.9 and 4.26
  Arrb1 gene expression (RNA-Seq): 7.32 and 7.58 and 7.1
  Axl gene expression (RNA-Seq): 19.13 and 18.11 and 18.34
  Bcl3 gene expression (RNA-Seq): 1.26 and 1.46 and 1.81
  Birc3 gene expression (RNA-Seq): 0.82 and 0.69 and 1.02
  Btg1 gene expression (RNA-Seq): 10.22 and 9.53 and 9.68
  Capg gene expression (RNA-Seq): 39.95 and 40.18 and 41.23
  Ccl5 gene expression (RNA-Seq): 26.92 and 30.51 and 26.01
  Ccl6 gene expression (RNA-Seq): 0.22 (2×) and 0.39
  Ccl9 gene expression (RNA-Seq): 0.11 and 0.07 and 0.02
  Ccl27b gene expression (RNA-Seq): 0.37 and 0.93 and 0.69
  Ccn1 gene expression (RNA-Seq): 43.03 and 43.88 and 47.2
  Ccnd1 gene expression (RNA-Seq): 93.08 and 94.99 and 95.21
  Cish gene expression (RNA-Seq): 2.04 and 1.79 and 1.74
  Ckap4 gene expression (RNA-Seq): 13.31 and 12.58 and 12.66
  Cx3cl1 gene expression (RNA-Seq): 1.83 and 1.75 and 1.74
  Cxcl1 gene expression (RNA-Seq): 0.29 and 0.77 and 0.5
  Cxcl10 gene expression (RNA-Seq): 23.61 and 22.04 and 22.99
  Cxcr3 gene expression (RNA-Seq): 1.95 and 1.7 and 1.8
  Dcps gene expression (RNA-Seq): 124.78 and 129.34 and 129.92
  Dusp1 gene expression (RNA-Seq): 6.18 and 4.88 and 5.31
  Dusp4 gene expression (RNA-Seq): 74.48 and 66.32 and 71.85
  Egr1 gene expression (RNA-Seq): 2.42 and 2.39 and 2.31
  Egr2 gene expression (RNA-Seq): 0.12 and 0.14 and 0.22
  Etfbkmt gene expression (RNA-Seq): 13.18 and 12.47 and 12.84
  Etv4 gene expression (RNA-Seq): 2.57 and 3.09 and 3.52
  Fos gene expression (RNA-Seq): 6.53 and 3.78 and 2.09
  Fosb gene expression (RNA-Seq): 6.21 and 3 and 0.33
  Gnb4 gene expression (RNA-Seq): 8.23 and 8.94 and 8.73
  Gng11 gene expression (RNA-Seq): 47.07 and 50.78 and 52.97
  Gsto1 gene expression (RNA-Seq): 56.3 and 52.98 and 58.2
  Hes1 gene expression (RNA-Seq): 4.87 and 4.41 and 5.8
  Ifitm3 gene expression (RNA-Seq): 48.58 and 48.45 and 50.69
  Igf1r gene expression (RNA-Seq): 6.64 and 6.31 and 6.49
  Ikzf2 gene expression (RNA-Seq): 0.58 and 0.65 and 0.83
  Il3ra gene expression (RNA-Seq): 8.13 and 8.28 and 7.91
  Il4ra gene expression (RNA-Seq): 0.35 and 0.33 and 0.39
  Il15ra gene expression (RNA-Seq): 0.8 and 0.77 and 0.98
  Il18 gene expression (RNA-Seq): 2.98 and 3.73 and 3.81
  Irak2 gene expression (RNA-Seq): 6.66 and 7.18 and 6.91
  Irf6 gene expression (RNA-Seq): 0.95 and 0.94 and 0.76
  Irs2 gene expression (RNA-Seq): 6.99 and 6.74 and 7.06
  Jag1 gene expression (RNA-Seq): 5.14 and 5.2 and 5.32
  Junb gene expression (RNA-Seq): 9.95 and 9.21 and 10.31
  Klf2 gene expression (RNA-Seq): 5.92 and 4.44 and 4.22
  Klf4 gene expression (RNA-Seq): 1.74 and 0.87 and 0.94
  Klf9 gene expression (RNA-Seq): 2.21 and 2.14 and 2.03
  Lif gene expression (RNA-Seq): 0.18 and 0.1 and 0.2
  Lrrc8c gene expression (RNA-Seq): 9.54 and 9.91 and 9.16
  Maff gene expression (RNA-Seq): 8.01 and 8.27 and 7.95
  Myc gene expression (RNA-Seq): 80.51 and 79.74 and 85.17
  Nfkb2 gene expression (RNA-Seq): 29.06 and 30.4 and 30.6
  Nfkbia gene expression (RNA-Seq): 28.35 and 27.12 and 24.65
  Nfkbie gene expression (RNA-Seq): 23.83 and 25.35 and 25
  Nr4a1 gene expression (RNA-Seq): 46.25 and 44.44 and 46.02
  Nr4a3 gene expression (RNA-Seq): 17.79 and 16.5 and 17.39
  P2rx7 gene expression (RNA-Seq): 16.97 and 18.85 and 16.56
  Pde4b gene expression (RNA-Seq): 11.38 and 11.69 and 11.76
  Pim1 gene expression (RNA-Seq): 7.35 and 8.15 and 8.02
  Plcb2 gene expression (RNA-Seq): 0.43 and 0.62 and 0.67
  Plcg2 gene expression (RNA-Seq): 1.3 and 1.71 and 1.76
  Pmepa1 gene expression (RNA-Seq): 1.45 and 1.08 and 1.06
  Pnrc1 gene expression (RNA-Seq): 33.48 and 28.22 and 29.95
  Prnp gene expression (RNA-Seq): 1380.34 and 1358.49 and 1354.58
  Ptk2b gene expression (RNA-Seq): 2.37 and 2.08 and 2.03
  Relb gene expression (RNA-Seq): 11.53 and 13.05 and 11.17
  Rgs16 gene expression (RNA-Seq): 9.71 and 10 and 9.9
  Rhob gene expression (RNA-Seq): 60.96 and 58.66 and 58.57
  Serpine1 gene expression (RNA-Seq): 1.09 and 0.86 and 1.2
  Shc3 gene expression (RNA-Seq): 0.37 and 0.31 and 0.25
  Smad3 gene expression (RNA-Seq): 20.9 and 21.03 and 22.24
  Smpdl3a gene expression (RNA-Seq): 36.94 and 40.39 and 39.45
  Spred2 gene expression (RNA-Seq): 19.27 and 21.51 and 19.83
  Spry4 gene expression (RNA-Seq): 2.44 and 2.59 and 2.62
  Src gene expression (RNA-Seq): 43.09 and 43.5 and 41.98
  St3gal4 gene expression (RNA-Seq): 75.01 and 74.93 and 70.63
  Syt11 gene expression (RNA-Seq): 7.36 and 7.81 and 7.47
  Tlr2 gene expression (RNA-Seq): 0.22 and 0.34 and 0.25
  Tlr7 gene expression (RNA-Seq): 0.79 and 0.75 and 0.7
  Tnfaip3 gene expression (RNA-Seq): 0.93 and 0.95 and 0.79
  Zc3h12a gene expression (RNA-Seq): 3.34 and 3.16 and 3.73

## Cc1ncc2n1-c1ccc(Cl)cc1C(c1ccccc1F)=NC2 [Midazolam, reference compound]
[3]
  half-life at 1 µM: 1.24 min
  microsomal CLint at 1 µM: 1120 µL/min/mg

## FC(F)c1nc2ccccc2n1-c1nc(N2CCOCC2)nc(N2CCOCC2)n1 [ZSTK474, reference compound]
[1]
  GI50: 320 nM
